For experiment [1], the target named is T1, Prostaglandin G/H synthase 1 (Bos taurus, UniProt O62664).
T1 sequence (O62664 whole entry): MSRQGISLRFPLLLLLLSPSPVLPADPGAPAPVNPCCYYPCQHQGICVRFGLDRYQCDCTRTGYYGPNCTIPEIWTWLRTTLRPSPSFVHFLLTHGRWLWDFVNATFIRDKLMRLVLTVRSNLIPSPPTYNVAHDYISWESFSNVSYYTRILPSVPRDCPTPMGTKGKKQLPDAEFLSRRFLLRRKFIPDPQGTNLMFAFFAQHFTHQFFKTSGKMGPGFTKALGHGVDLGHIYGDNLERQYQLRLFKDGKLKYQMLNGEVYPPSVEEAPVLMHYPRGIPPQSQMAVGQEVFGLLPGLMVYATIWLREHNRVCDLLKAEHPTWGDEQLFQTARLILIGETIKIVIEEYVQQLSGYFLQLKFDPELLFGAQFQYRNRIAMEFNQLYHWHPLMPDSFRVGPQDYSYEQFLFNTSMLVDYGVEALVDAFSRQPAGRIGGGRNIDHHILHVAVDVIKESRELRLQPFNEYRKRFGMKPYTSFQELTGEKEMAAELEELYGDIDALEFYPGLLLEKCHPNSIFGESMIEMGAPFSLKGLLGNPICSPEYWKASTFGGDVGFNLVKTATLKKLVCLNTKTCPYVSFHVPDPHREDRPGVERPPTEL
The experiment can be described thus: Inhibition of bovine seminal microsomal COX1 assessed as PGE2 production preincubated for 10 mins.

Experiment [2] has as its target T1, Prostaglandin G/H synthase 1. As to the kind of experiment: Inhibition of bovine seminal microsomal COX1 assessed as PGE2 production.

A value given as a limit tells only on which side of the number the result lay.

Turning to `Oc1cc(O)c2c(c1)O[C@H](c1ccc(O)c(O)c1)[C@@H](O)C2` [CIANIDANOL], the half-inhibitory concentration (IC50) in experiment [1] amounted to 279 µM; in experiment [2] it was 183 µM.

Consider `CS(=O)(=O)Nc1ccc([N+](=O)[O-])cc1OC1CCCCC1` [NS-398], for which the IC50 in experiment [1] is […].

On to `C[C@@H]1O[C@@H](Oc2c(-c3ccc(O)c(O)c3)oc3cc(O)cc(O)c3c2=O)[C@H](O)[C@H](O)[C@H]1O` [QUERCITRIN], for which the IC50 in experiment [1] and in experiment [2] was greater than 2000 µM throughout.

These data come from ChEMBL document CHEMBL1158843, “Development of a radiochemical cyclooxygenase-1 and -2 in vitro assay for identification of natural products as inhibitors of prostaglandin biosynthesis” (J Nat Prod, 1998).
